For the assay, the target named is T1, STING (Homo sapiens, UniProt Q86WV6, G230A/H232R/R293Q/R71H).
T1 construct: host or cells: THP1-Dual KO-IFNAR2 cells
Nature of the assay: STING reporter assay: luciferase reporter activity in THP1-Dual KO-IFNAR2 cells stimulated with 2'3'cGAMP. It counts as cell-based. The note with it: 2′3′cGAMP 15 μM final, 24h, read-out: hSTING: EC50. The method, boiled down:
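THP1-Dual KO-IFNAR2 cells (2×10E6 cells/mL) incubated with compounds at 0.0017-100 μM final plus Lipofectamine-transfected 2′3′cGAMP (15 μM final), 24 h at 37 °C, 5% CO2. Luciferase in supernatant read by QUANTI-Luc luminescence; EC50 derived.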
Background: A reporter such as luciferase makes a cellular process visible.

T1 sequence (Q86WV6 whole entry R71H/G230A/H232R/R293Q): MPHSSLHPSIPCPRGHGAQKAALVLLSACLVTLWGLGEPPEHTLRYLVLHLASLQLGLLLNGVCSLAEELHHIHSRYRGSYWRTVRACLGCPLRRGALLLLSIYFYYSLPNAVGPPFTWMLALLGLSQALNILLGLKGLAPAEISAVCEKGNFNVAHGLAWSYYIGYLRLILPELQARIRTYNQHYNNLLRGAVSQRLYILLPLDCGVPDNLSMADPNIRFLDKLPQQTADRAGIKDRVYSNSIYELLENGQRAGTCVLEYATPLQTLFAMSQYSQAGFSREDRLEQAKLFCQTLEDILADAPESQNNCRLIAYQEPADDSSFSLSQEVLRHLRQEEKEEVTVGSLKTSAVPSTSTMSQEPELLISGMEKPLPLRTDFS

As a reminder, the EC50 is the concentration at which the effect is half-maximal. Take `O=C(Nc1c[nH]c2cc(F)c(F)cc12)C(=O)NC1CCC(Oc2ccc(C(F)(F)F)cc2)CC1` (stereo not shown) [Compound 315]: the EC50 is 0.04 to 0.2 µM.

Turning to `O=C(Nc1c[nH]c2cc(F)c(F)cc12)C(=O)NC1CCC(Oc2ccccn2)CC1` (stereo not shown) [Compound 316], the EC50 is 0.2 to 1 µM. As to `O=C(Nc1c[nH]c2cc(F)c(F)cc12)C(=O)N1CCC(Oc2ccc(C(F)(F)F)cc2)CC1` [Compound 317], the EC50 fell in the range of 0.2 to 1 µM. In the case of `Cc1cnc(CNC(=O)C(=O)Nc2c[nH]c3cc(F)c(F)cc23)cc1C(F)(F)F` [Compound 318], the EC50 is 0.2 to 1 µM. As for `N#Cc1ccc2[nH]cc(NC(=O)C(=O)NCc3ccc(C(F)(F)F)c(Cl)c3)c2c1` [Compound 321], the figure is 0.2 to 1 µM; as for `CN(CCNC(=O)C(=O)Nc1c[nH]c2cc(F)c(F)cc12)c1ccccn1` [Compound 322], 0.2 to 1 µM; as for `Cc1cc2c(cn1)C(NC(=O)C(=O)Nc1c[nH]c3cc(F)c(F)cc13)CCC2` (stereo not shown) [Compound 323], 0.2 to 1 µM. On to `O=C(NCc1ccnc(N2CCCCC2)c1)C(=O)Nc1c[nH]c2cc(F)c(F)cc12` [Compound 324], for which the EC50 was in the range of 0.2 to 1 µM. As for `O=C(NCCOc1cncc(C(F)(F)F)c1)C(=O)Nc1c[nH]c2cc(F)c(F)cc12` [Compound 325], the figure is 0.2 to 1 µM. As for `O=C(NCc1cccc(N2CCCCC2)n1)C(=O)Nc1c[nH]c2cc(F)c(F)cc12` [Compound 326], the figure is 0.2 to 1 µM.

Turning to `O=C(NCCOc1ccc(C(F)(F)F)nc1)C(=O)Nc1c[nH]c2cc(F)c(F)cc12` [Compound 327], the EC50 is 0.2 to 1 µM. For `CC(CN(C)c1ccccc1)NC(=O)C(=O)Nc1c[nH]c2cc(F)c(F)cc12` (stereo not shown) [Compound 328] the value was 0.2 to 1 µM; for `CN(CCNC(=O)C(=O)Nc1c[nH]c2cc(F)c(F)cc12)c1ccccc1` [Compound 331], 0.2 to 1 µM; for `O=C(Nc1c[nH]c2cc(F)c(F)cc12)C(=O)NC1CCN(c2cccnc2)C1` (stereo not shown) [Compound 332], 1 to 5 µM. For `O=C(NCc1cnc(C2CCC(F)(F)CC2)c(F)c1)C(=O)Nc1c[nH]c2cc(F)c(F)cc12` [Compound 333] the value was 0.2 to 1 µM; for `O=C(NCc1ccc(Cl)c(C(F)(F)F)n1)C(=O)Nc1c[nH]c2cc(F)c(F)cc12` [Compound 334], 0.2 to 1 µM; for `O=C(NCc1cc(C(F)(F)F)c(Cl)cn1)C(=O)Nc1c[nH]c2cc(F)c(F)cc12` [Compound 335], 0.04 to 0.2 µM. As to `O=C(Nc1c[nH]c2cc(F)c(F)cc12)C(=O)NC1CCN(Cc2cccc(C(F)(F)F)c2)C1` (stereo not shown) [Compound 336], the EC50 was 0.2 to 1 µM.

Consider `O=C(Nc1c[nH]c2cc(F)c(F)cc12)C(=O)NC1CCN(c2ccc(C(F)(F)F)cn2)C1` (stereo not shown) [Compound 337], for which the EC50 lay in the range of 0.2 to 1 µM. For `O=C(NCc1cccc(C(F)(F)F)n1)C(=O)Nc1c[nH]c2cc(F)c(F)cc12` [Compound 338], the concentration for a half-maximal effect (EC50) was 0.2 to 1 µM.

For the compound `O=C(NCc1ccc(C(F)(F)F)c(Cl)c1)C(=O)Nc1c[nH]c2ccc(CCO)cc12` [Compound 339, N-(3-chloro-4-(trifluoromethyl)benzyl)-N′-(5-(2-hydroxyethyl)-1H-indol-3-yl)oxalamide], the EC50 lay within 0.2 to 1 µM. With `CC(C)(O)c1cccc(-c2ccc3[nH]cc(NC(=O)C(=O)NCc4ccc(C(F)(F)F)c(Cl)c4)c3c2)c1` [Compound 340], the EC50 was in the range of 1 to 5 µM. Consider `CC(C)n1cc(-c2cc3c(NC(=O)C(=O)Nc4ccc(C(F)(F)F)cc4)c[nH]c3cc2F)cn1` [Compound 341, N-(6-fluoro-5-(1-isopropyl-1H-pyrazol-4-yl)-1H-indol-3-yl)-N′-(4-(trifluoromethyl)phenyl)oxalamide], for which the EC50 lay in the range of 0.2 to 1 µM. For `O=C(NCc1ccnc(C(F)(F)F)c1)C(=O)Nc1c[nH]c2cc(F)c(F)cc12` [Compound 342] the value was 0.2 to 1 µM; for `O=C(NCc1cncc(C(F)(F)F)c1)C(=O)Nc1c[nH]c2cc(F)c(F)cc12` [Compound 343], 0.2 to 1 µM; for `O=C(NCc1ccc(C(F)(F)F)nc1)C(=O)Nc1c[nH]c2cc(F)c(F)cc12` [Compound 344], 0.2 to 1 µM. Consider `CC(C)n1cc(-c2ccc3[nH]cc(NC(=O)C(=O)Nc4ccc(C(F)(F)F)cc4)c3c2)cn1` [Compound 346], for which the concentration giving a half-maximal response (EC50) lay in the range of 0.2 to 1 µM. In the case of `O=C(NC[C@@H](c1ccccc1)C(F)F)C(=O)Nc1c[nH]c2cc(F)c(F)cc12` [Compound 348], the EC50 was in the range of 0.2 to 1 µM. On to `O=C(NCc1ccc(C(F)(F)F)c(Cl)c1)C(=O)Nc1c[nH]c2ccc(-c3cccc(CO)c3)cc12` [Compound 349, N-(3-chloro-4-(trifluoromethyl)benzyl)-N′-(5-(3-(hydroxymethyl)phenyl)-1H-indol-3-yl)oxalamide], for which the half-maximal effective concentration (EC50) lay in the range of 1 to 5 µM. As for `O=C(NCc1ccc(C(F)(F)F)c(Cl)c1)C(=O)Nc1c[nH]c2ccc(-c3cnn(CC(F)(F)F)c3)cc12` [Compound 350], the EC50 was in the range of 0.2 to 1 µM. As to `O=C(NCCc1cccc(C(F)(F)F)c1)C(=O)Nc1c[nH]c2cc(F)c(F)cc12` [Compound 351], the EC50 lay in the range of 0.2 to 1 µM.

The values are drawn from patent publication US20230021448A1, “COMPOUNDS AND COMPOSITIONS FOR TREATING CONDITIONS ASSOCIATED WITH STING ACTIVITY” (IFM Due, Inc., priority 2019, published 2023).
